Test results from US4432973A, “Benzoyl- and α-hydroxybenzyl-phenyl-glycosides and application thereof in therapeutics” (Societe de Recherches Industrielles (S.O.R.I.), priority 1980, dated 1984).

Experiments:
[1] = Acute toxicity in the mouse by the I.P. route; type: in vivo; conditions: in vivo, ip
Text: The acute toxicity was studied in the mouse by the I.P. route. It is expressed in the form of DL-50 (lethal dose involving the death of half of the animals) or DL-0 (maximum non-lethal dose).

[2] = Veinous thrombosis: veinous anti-thrombus activity; type: in vivo; conditions: Rattus norvegicus, ip, 50 mg/kg IP, 4 to 5 hours after administration, read-out: Diminution of veinous thrombus
[3] = Anti-ulcer activity: ulcer caused by aspirin; type: in vivo, rat (male Wistar); conditions: 100 mg/kg I.P.; aspirin 192 mg/kg per os; standardised to control batch and cimetidine (index 1)
Outline: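 Male Wistar rats weighing 180 to 200 g were fasted from t=0, when they received a first dose of the test product. At t=18 hours they were given 2 ml of an ulcer-forming suspension of aspirin at 192 mg/kg per os, followed by a second dose of the product. At t=22 hours the animals were sacrificed and their ulcers graded: 1 for small point-like, 3 for more extensive, 9 for highly extensive or very deep. Scores were standardised against a control batch and against cimetidine, the reference, assigned index 1.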

[4] = system: blood platelet aggregation; assay: Spontaneous aggregation: blood platelet anti-aggregation activity; type: in vivo, rat (adult male); conditions: Platelet, ip; 100 mg/kg I.P., t=5 hours, rat
Description: The technique used is that of Sanders described in Laboratory Animal Science 27 (No. 5), pages 757-761 (1977).
After administration at 100 mg/kg I.P. (unless specified to the contrary in Table V hereinbelow) of the product to be tested to adult male reproducing rats, two blood samples are taken, one on sodium citrate and the other on sodium citrate treated with formaldehyde at instant t=5 hours.
After centrifugation of the samples, a platelet count is made on the supernatant liquid. The spontaneous aggregation index according to Wu and Hook Stroke 6, 521-524 (1975) is expressed by the relation: [formula]

[5] = Veinous thrombosis: veinous anti-thrombus activity; type: in vivo; conditions: Rattus norvegicus, ip, 100 mg/kg I.P., 4 to 5 hours after administration, read-out: Diminution of veinous thrombus
Description: The technique used is similar to the one described by Peterson-Zucker in Thrombo.Diath.Haemorh. 23, 1, (1970).
An occlusive thrombus is created in the […] vena cava of a rat by the combined action of an endothelial alteration and a veinous stasis for 15 mins. and 4 to 5 hours after administration of the product to be tested (100 mg/kg I.P.).

[6] = Anti-hypoxic activity: survival to hypoxia (nitrogen-oxygen 95:5); type: in vivo, mouse (Swiss male); conditions: I.P., 1/10th of LD-50 or 100 mg/kg when LD-0 ≥ 800 mg/kg; up to 15 minutes; mouse
Outline: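 Groups of 20 male Swiss mice (20–30 g) received compound i.p. at 1/10 LD-50, or 100 mg/kg when LD-0 ≥800 mg/kg, then were placed in nitrogen-oxygen 95:5 v/v. Survival time was recorded up to 15 min and expressed as % survival versus untreated controls; Duxil reference given at 18 mg/kg i.p.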

Row | Compound | LD50 ([1]; I.P., read-out: DL-50 (lethal dose involving the death of half of the animals)) [mg/kg] | inhibition in vivo at 50 mg/kg [2] [%] | DL-0 (maximum non-lethal dose) [1] [mg/kg IP] | Ulcer index [3] | inhibition in vivo at 100 mg/kg [4] [%] | inhibition in vivo at 100 mg/kg [5] [%] | Survival (survival percentage to hypoxic aggression) [6]
1 | Cc1ccc(C(O)c2cccc(O[C@@H]3OC[C@@H](O)[C@H](O)[C@H]3O)c2)cc1 (single isomer, unassigned) [Example 106] | 500 | ≥ 50 |  |  |  |  | 
2 | Cc1cc(C(=O)c2ccccc2Cl)cc(C)c1O[C@@H]1OC[C@@H](O)[C@H](O)[C@H]1O [Example 102] |  |  | > 800 | 0.49 | ≥ 40 | 30 to 49 | +++ (higher than or equal to 80%)
